Results reported in patent US11896583B2, “Tinostamustine for use in treating ovarian cancer” (EURO-CELTIQUE S.A., priority 2017, dated 2024).

Tested on: tumour spheroids from primary ovarian cancer tissue
Experiment: Ovarian cancer spheroid model, ATP assay (CellTiter-Glo) of cell viability / metabolic activity
Experimental: Fresh primary ovarian cancer samples were obtained after informed consent of the individual patient was given. Patients were recruited following clinical diagnosis, and prior to chemotherapy commencing.
Heterotypic tumour spheroids were prepared from the individual primary ovarian cancer tissue. The tumour samples were mechanically and enzymatically digested using an enzyme cocktail (Roche, Penzberg Germany), cell viability determined using the trypan-blue exclusion test, and spheroids seeded at a cell density of 50,000 using a modified liquid overlay method. After 48 h in cell culture under standard conditions, successful spheroid formation was documented photographically before starting treatment.
Each experiment was repeated six times, and both untreated (medium) control and two positive controls (carboplatin+paclitaxel and vorinostat) were used under the same culture conditions. Treatment efficacy, i.e. treatment-induced reduction of the cellular metabolic activity (cell viability) was analyzed using a standard ATP assay.
Once the feasibility study was completed, tumour spheroids consisting of 50,000 cells were prepared from the individual primary ovarian cancer tissue as described above. After 48 h, spheroid formation was documented photographically before starting treatment. […] Treatment efficacy was evaluated using a standard ATP assay, details of which are provided below.
ATP assay test from Promega: CellTiter-Glo®. The CellTiter-Glo® Luminescent Cell Viability Assay is a homogeneous method to determine the number of viable cells in culture based on quantitation of the ATP present, which signals the presence of metabolically active cells. […] The homogeneous assay procedure involves adding a single reagent (CellTiter-Glo® Reagent) directly to cells cultured in serum-supplemented medium.
The homogeneous “add-mix-measure” format results in cell lysis and generation of a luminescent signal proportional to the amount of ATP present.

| SMILES | metabolic activity (ATP assay) (FIG. 6, patient #5295, 72 h) | reduction in cell viability to (FIG. 1, patient #5284, 5 μM, after 48 h) [%] | reduction in cell viability (compared to the untreated control) (FIG. 1, patient #5284, 7.5 μM) [%] | reduction in cell viability (compared to the untreated control) (FIG. 1, patient #5284, 10 μM) [%] | cell viability compared to control untreated spheroids (FIG. 1, patient #5284, 2.5-10 μM) | reduction in cell viability compared with carboplatin+paclitaxel (FIG. 1, patient #5284, 5, 7.5 and 10 μM, after 48 h) | reduction in cell viability compared with carboplatin+paclitaxel (FIG. 1, patient #5284, 5, 7.5 and 10 μM, after 72 h) | reduction in cell viability compared with vorinostat (FIG. 1, patient #5284, 5, 7.5 and 10 μM, all time points) | time dependence of cell viability (FIG. 1, patient #5284, higher concentrations) | time dependence of cell viability (FIG. 1, patient #5284, lower concentrations, 48 h to 96 h) | efficacy compared with positive controls (FIG. 2, patient #5285, feasibility study) | reduction in cell viability, combination therapy (FIG. 4, n=8, EDO-S101 5 μM, carboplatin 110 μM, paclitaxel 1.79 μM, 72 h) | effect of adding EDO-S101 to other treatments (FIG. 6, patient #5295, 72 h) | efficacy compared with carboplatin (FIG. 6, patient #5295, 72 h) | effect of adding EDO-S101 to other treatments (FIG. 7, patient #5296, 72 h) | metabolic activity (ATP assay) (FIG. 7, patient #5296, 72 h) | metabolic activity (ATP assay) (FIG. 8, patient #5310, 72 h, samples from ovary and omentum) | metabolic activity (ATP assay) (FIG. 9, patient #5311, 72 h) | metabolic activity (ATP assay) (FIG. 10, patient #5329, 72 h) |
| --- | --- | --- | --- | --- | --- | --- | --- | --- | --- | --- | --- | --- | --- | --- | --- | --- | --- | --- | --- |
| CC(=O)O[C@H]1C(=O)[C@@]2(C)[C@H]([C@H](OC(=O)c3ccccc3)[C@]3(O)C[C@H](OC(=O)[C@H](O)[C@@H](NC(=O)c4ccccc4)c4ccccc4)C(C)=C1C3(C)C)[C@]1(OC(C)=O)CO[C@@H]1C[C@@H]2O [paclitaxel, reference compound] | negligible efficacy | – | – | – | – | – | – | – | – | – | – | – | – | – | – | – | – | – | – |
| Cn1c(CCCCCCC(=O)NO)nc2cc(N(CCCl)CCCl)ccc21 [EDO-S101, 7-(5-(bis(2-chloroethyl)amino)-1-methyl-1H-benzo[d]imidazol-2-yl)-N-hydroxyheptanamide] | shows a reduction in metabolic activity compared to the negative control | 50 | ~80 | ~80 | A reduction in cell viability was observed | greater than that in spheroids treated with carboplatin+paclitaxel after 48 h | comparable after 72 h | greater than that in spheroids treated with vorinostat at all time points | did not decrease in a time dependent manner | decreased in a time dependent manner | better than both carboplatin+paclitaxel or vorinostat | median reduction in cell viability comparable to carboplatin+paclitaxel, but with enhanced average potency across the experimental group | further reduced metabolic activity when used in combination with carboplatin, paclitaxel and carboplatin+paclitaxel | comparable to that of carboplatin | enhanced efficacy when in combination with carboplatin, paclitaxel and carboplatin+paclitaxel | enhanced reduction in metabolic activity compared to vorinostat, carboplatin or paclitaxel | effective in treating ovarian cancer from the omentum | comparable efficacy to that observed in spheroids treated with vorinostat | comparable or improved activity compared to vorinostat and carboplatin as monotherapies |
| O=C(CCCCCCC(=O)Nc1ccccc1)NO [vorinostat, reference compound] | negligible efficacy | – | – | – | – | – | – | – | – | – | – | – | – | – | – | – | – | – | – |
